Laboratory results reported in PMC6683251, “Flavanol Bioavailability in Two Cocoa Products with Different Phenolic Content. A Comparative Study in Humans” (Nutrients, 2019).
Values joined by “and” are separate entries in the source; they are usually repeats but may differ in a detail not shown here. Equal values may be shown once. Read-outs that look alike come from different tables or passages of the source.

Columns and labels:
[1] = Urinary excretion of flavanol metabolites (0-24 h) after a single serving of soluble cocoa product (HPLC-ESI-QToF-MS); format: in vivo, human; details: for Excreted in urine, Total: 24 h urine; for Excreted in urine, Total / Excreted in urine, 0–4 h / Excreted in urine, 4–8 h / Excreted in urine, 8–12 h / Excreted in urine, 12–24 h / Excreted in urine, Basal: mean ± SD, n = 13; for Excreted in urine, Basal: basal urine (−2–0 h, before intake)
Procedure: They were non-smoker, non-vegetarian, non-pregnant women, who were not taking any medication or nutritional supplements, and were not suffering from any chronic pathology or gastrointestinal disorder. The sample size was estimated attending to similar previous bioavailability studies. The volunteers gave their informed consent prior to participation.
(§1) The present randomized, single-blind study was carried out at the Human Nutrition Unit (HNU) of the Institute of Food Science, Technology and Nutrition (ICTAN). Volunteers attended the HNU on two days, separated by two weeks. Three days previous to each visit, participants were instructed not to consume cocoa products (chocolate, soluble cocoa, etc.), juices, tea, wine, grape must, oranges, tangerines, apples, grapes, strawberries or other berries, beets, onions, soybeans and soy derivatives.
On each intervention day, volunteers arrived at the HNU after an overnight fast. […] The soluble cocoa products, either 15 g of CC or 25 g CC-PP, were dissolved in 200 mL of semi-skimmed milk following manufacturer’s preparation instructions. Plasma was separated by centrifugation (10 min, 3000 rpm, 4 °C) and stored at −80 °C until further analysis. […] A polyphenol-free breakfast, lunch and afternoon snack were provided 2 h, 4 h, and 8 h after consumption of cocoa products, and water and isotonic beverages were available ad libitum.
Urine samples were diluted with an equivalent volume of Milli-Q water (50%) and centrifuged at 14000 rpm (10 min, 4 °C). Supernatants were filtered (0.45 μm pore-size cellulose-acetate membrane filters) and a 5 µL aliquot was directly injected into the LC-ESI-QToF-MS equipment.
The test samples, either 30 μL of the plasma extract or 5 μL of diluted urine, were injected and separated using a mobile phase consisting of Milli-Q water (phase A) and acetonitrile (phase B), both containing 0.1% formic acid, at a flow rate of 0.3 mL/min. The mobile phase was initially programmed with 90% of solvent A and 10% of B. The elution program increased to 30% of solvent B in 10 min. Then, the initial conditions (10% solvent B) were recovered in 5 min and maintained for 5 min.
Due to the lack of standards for certain phase II metabolites, they were tentatively quantified using the calibration curves of their corresponding phenolic precursors. […] The rest of microbial metabolites identified, derivatives of hydroxyphenylpropionic, hydroxyphenylacetic, hydroxybenzoic and hippuric acids, were quantified using their respective commercially available standards. Urine concentration of the excreted metabolites was normalized by the volume excreted in each studied interval. […] Calibration curves were freshly prepared in a pool of both plasma and urine due to matrix effects.
Statistical analyses were carried out using the program SPSS (version 23.0, SPSS, Inc., IBM Company, New York, NY, USA). Significant differences between metabolites excreted in urine after consumption of CC and CC-PP cocoa products were evaluated based on non-parametric Wilcoxon test (p < 0.05). To determine the absorption and elimination of epicatechin metabolites after consumption of the soluble cocoa products, metabolite nutrikinetics were studied using the pharmacokinetic functions of Microsoft Excel, calculating the maximum concentration (Cmax), area under curve (AUC) and time to reach maximum concentration (Tmax). Data are expressed as mean ± standard deviation.

[2] = Plasma nutrikinetics of flavanol metabolites after a single serving of soluble cocoa product (HPLC-ESI-QToF-MS); format: in vivo, human; details: for AUC: human plasma 0-8 h, read-out: AUC; for AUC / Tmax / Cmax: mean ± SD, n = 13; for Tmax / Cmax: human plasma; for Tmax: read-out: Tmax
Procedure: The study was carried out in thirteen healthy subjects (3 men and 10 women); the mens’ average age and body mass index were 26.67 ± 3.21 year and 22.47 ± 2.97 kg/m^2, respectively, and womens’ were 32.60 ± 9.85 year and 23.36 ± 3.73 kg/m^2, respectively. They were non-smoker, non-vegetarian, non-pregnant women, who were not taking any medication or nutritional supplements, and were not suffering from any chronic pathology or gastrointestinal disorder. The sample size was estimated attending to similar previous bioavailability studies. The volunteers gave their informed consent prior to participation.
as §1, with “derivatives. In addition, volunteers were asked to complete a 24 h food intake recall the day before they attended the HNU in order to monitor any possible food restriction incompliance.” for “derivatives.”
On each intervention day, volunteers arrived at the HNU after an overnight fast. Prior to the intake of the soluble cocoa product, a nurse inserted a cannula in the cubital vein of the non-prevailing arm of the volunteers and blood samples were collected into EDTA-coated tubes at baseline (t = 0) and 0.5, 1, 2, 3, 4, 6, and 8 h after consuming the corresponding cocoa product. The soluble cocoa products, either 15 g of CC or 25 g CC-PP, were dissolved in 200 mL of semi-skimmed milk following manufacturer’s preparation instructions. Plasma was separated by centrifugation (10 min, 3000 rpm, 4 °C) and stored at −80 °C until further analysis. Urine samples were collected at different time intervals (t = −2–0, 0–4, 4–8, 8–12, and 12–24 h) in urine collection flasks that contained 0.5 g of ascorbic acid as preservative and were aliquoted and frozen at −20 °C until analysis. A polyphenol-free breakfast, lunch and afternoon snack were provided 2 h, 4 h, and 8 h after consumption of cocoa products, and water and isotonic beverages were available ad libitum.
A liquid–liquid extraction and protein precipitation with acetonitrile was used to isolate metabolites from plasma. A 1 mL defrosted plasma sample was mixed with 50 μL of ascorbic acid (0.2 g/mL). After vortexing the aqueous mixture, it was added drop wise to 750 μL of cold acetonitrile and vortexed for 2 min before centrifuging at 12,000 rpm for 10 min at 4 °C. The supernatant was separated, and the pellet was re-extracted twice more following the same procedure. Supernatants were combined and reduced to dryness under a stream of nitrogen at 30 °C. The dried samples were resuspended in 150 μL of aqueous formic acid (0.1%) containing 10% acetonitrile acidified with 0.1% formic acid and centrifuged at 4 °C for 20 min at 14,000 rpm. The final supernatant was collected, filtered (0.45 μm pore-size, cellulose-acetate membrane filters, Albet, Dassel (Germany)) and 30 μL were analyzed by high-performance liquid chromatography coupled to electrospray ionisation and quadrupole time-of-flight mass spectrometry (HPLC-ESI-QToF-MS).
Analyses were performed on an Agilent 1200 series LC system coupled to an Agilent 6530A Accurate-Mass Quadrupole Time-Of-Flight (Q-ToF) with ESI-Jet Stream Technology (Agilent Technologies). Compounds were separated on a reverse-phase Ascentis Express C18 (15 cm × 3 mm, […]) column (Sigma-Aldrich Química, Madrid) preceded by a Supelco 55215-U guard column at 30 °C. […]

[3] = after CC-PP (68.25 mg flavanols)
[4] = both sexes, oral, 19.8 mg, after CC (19.80 mg flavanols)
[5] = both sexes, oral, after CC-PP (68.25 mg flavanols)
[6] = both sexes, oral, after CC (15 g in 200 mL semi-skimmed milk, 19.80 mg flavanols), read-out: Cmax
[7] = both sexes, oral, after CC-PP (25 g in 200 mL semi-skimmed milk, 68.25 mg flavanols), read-out: Cmax

SMILES | Excreted in urine, Total ([1]; after CC (19.80 mg flavanols)) [µmol] | Excreted in urine, 0–4 h ([1]; after CC (19.80 mg flavanols)) | Excreted in urine, 4–8 h ([1]; after CC (19.80 mg flavanols)) [µmol] | Excreted in urine, 8–12 h ([1]; after CC (19.80 mg flavanols)) | Excreted in urine, 12–24 h ([1]; after CC (19.80 mg flavanols)) | Excreted in urine, Total [1, 3] | Excreted in urine, 0–4 h [1, 3] | Excreted in urine, 4–8 h [1, 3] [µmol] | Excreted in urine, 8–12 h [1, 3] [µmol] | Excreted in urine, 12–24 h [1, 3] | AUC [2, 4] [µM·h] | Tmax [2, 4] [h] | AUC [2, 5] [µM·h] | Cmax [2, 6] [nM] | Tmax [2, 5] [h] | Cmax [2, 7] [nM] | Excreted in urine, Basal ([1]; CC intervention) | Excreted in urine, Basal ([1]; CC-PP intervention) | other results
O=S(=O)(O)Oc1cc([C@H]2Oc3cc(O)cc(O)c3C[C@H]2O)ccc1O [Epicatechin-3′-sulfate] | 2.417 ± 0.439 | 1.323 ± 0.236 µmol | 1.018 ± 0.178 | 0.076 ± 0.025 µmol | <L.Q. | 7.357 ± 1.523 µmol | 3.627 ± 0.797 µmol | 3.572 ± 0.662 | 0.158 ± 0.038 | <L.Q. | 0.101 ± 0.023 | 1 ± 0.1 | 0.109 ± 0.076 | 26 ± 3 | 1.2 ± 0.5 | 42 ± 4 |  |  | 
Oc1cc(O)c2c(c1)O[C@H](c1ccc(O)c(O)c1)[C@H](O)[C@H]2c1c(O)cc(O)c2c1O[C@H](c1ccc(O)c(O)c1)[C@H](O)C2 [PB2 dimer, procyanidin B2] |  |  |  |  |  |  |  |  |  |  |  |  |  |  |  |  |  |  | Detection of un-metabolized compound in urine ([1]; any of the interventions (CC, CC-PP)): Neither epicatechin nor PB2 dimer was detected in urine; Detection of un-metabolized compound in the collected biological fluids ([2]; plasma and urine, CC and CC-PP): Neither un-metabolized epicatechin and catechin nor procyanidins B1 and B2 were detected
O=C1CCC(Cc2ccc(O)c(O)c2)O1 (stereo not drawn) [DHPVL, 5-(3′,4′-Dihydroxyphenyl)-γ-valerolactone] | 0.146 ± 0.032 | <L.Q. | 0.146 ± 0.032 | <L.Q. | <L.Q. | 1.084 ± 0.199 µmol | <L.Q. | 0.628 ± 0.087 | 0.174 ± 0.029 | 0.282 ± 0.082 µmol | 0.124 ± 0.073 | 6 ± 1.6 | 0.192 ± 0.029 | 35 ± 8 | 5.5 ± 1.4 | 37 ± 7 | <L.Q. | <L.Q. | 
O=C1CCC(Cc2ccc(O)c(OC3OC(C(=O)O)C(O)C(O)C3O)c2)O1 (stereo not drawn) [HPVL-3′-glucuronide, 5-(4′-Hydroxyphenyl)-γ-valerolactone-3′-glucuronide] | 0.600 ± 0.232 | <L.Q. | 0.497 ± 0.204 | 0.103 ± 0.028 µmol | <L.Q. | 2.358 ± 0.766 µmol | <L.Q. | 1.802 ± 0.567 | 0.274 ± 0.060 | 0.282 ± 0.130 µmol | 0.106 ± 0.021 | 5.6 ± 0.8 | 1.43 ± 0.727 | 31 ± 4 | 5 ± 1.2 | 357 ± 200 | <L.Q. | <L.Q. | 
O=C1CCC(Cc2cccc(OS(=O)(=O)O)c2)O1 (stereo not drawn) [PVL-3′-sulfate, 5-Phenyl-γ-valerolactone-3′-sulfate] | 1.691 ± 0.802 | <L.Q. | 0.860 ± 0.385 | 0.456 ± 0.284 µmol | 0.375 ± 0.133 µmol | 7.8 µmol and 7.752 ± 2.868 µmol | 0.651 ± 0.389 µmol | 4.188 ± 1.535 | 1.223 ± 0.373 | 1.690 ± 0.572 µmol |  | 4 to 6 | 0.161 ± 0.105 |  | 5.2 ± 2.2 | 39 ± 14 | <L.Q. | <L.Q. | Cmax ([2]; after CC (15 g in 200 mL semi-skimmed milk, 19.80 mg flavanols)): traces level
COc1cc([C@H]2Oc3cc(O)cc(OS(=O)(=O)O)c3C[C@H]2O)ccc1O (single isomer, unassigned) [Epicatechin-methoxy-sulfate (isomer 1), Epicatechin-methoxy-sulfate] | 4.428 ± 0.800 | 2.717 ± 0.457 µmol | 1.300 ± 0.197 | 0.154 ± 0.031 µmol | 0.257 ± 0.114 µmol | 12.481 ± 2.243 µmol | 8.642 ± 1.434 µmol | 3.277 ± 0.644 | 0.330 ± 0.095 | 0.232 ± 0.070 µmol | 0.122 ± 0.025 | 1.3 ± 0.6 | 0.173 ± 0.107 | 31 ± 3 | 1.1 ± 0.6 | 41 ± 2 |  |  | 
